According to patent US20220363848A1, “ANTIMICROBIAL MULTILAYER FILM” (Cryovac, LLC, priority 2019, published 2022):

System: microbes of beef purge inoculum
Assay: Modified film test: total aerobic plate count after contact of inoculum with antimicrobial test film
Format: cell-based
Conditions: for Antimicrobial Performance vs. VLDPE Control (percent reduction in microbes), Amide wax alone Erucamide, Test 2: primary additive 10 wt % in Affinity PL 1280G1 C8-VLDPE containing 1664 ppm cis-13-docosenamide
Experimental: Each of the materials shown in Tables 1 and 2 was compounded into sealant resin, comprised of Affinity PL 1280G, a C8-VLDPE and films were prepared for microbial control testing. The primary additives were tested at 10 wt %. Secondary additives and Cis-13-docosenamide (sold under the trade name Erucamide) were tested as detailed in Table 3.
Test 2: Each of the primary antimicrobial materials in Table 1 was compounded at 10 wt % into sealant resin comprised of Affinity PL 1280G1, a C8-VLDPE containing 1664 ppm of cis-13-docosenamide and films were prepared for microbial control testing.
Tests 3-5: Each of the primary antimicrobial materials in Table 1 was compounded at 10% w/w into sealant resin comprised of Affinity PL 1280G, a C8-VLDPE and 2-3 wt % of the secondary antimicrobials (Table 2) or cis-13-docosenamide were added as detailed in Table 3 and films were prepared for microbial control testing.
Due to the limitations seen in the laboratory with the ISO 22196 test, a modified film test was developed. The test protocol was designed to simulate an actual package environment. […] “Purge” is the liquid that exudes from cut meat or poultry and collects freely in the package. This is typically found in larger packages. The purge liquid can be carefully removed from the packages and used for the following tests. For the tests conducted in this study, beef purge was used. The beef purge is a combination of water, fats, enzymes and meat proteins that drain from the meat. The purge also contains the same bacterial flora as that which contaminates the surface of the meat itself. Thus, this purge could include gram positive bacteria like Lactobacillus species, (Lactic Acid Bacteria), and Listeria species, as well as, gram negative bacteria like E. coli, Campylobacter or Salmonella species.
Antimicrobial films may contain the active ingredient extruded into the surface layer of the film, or coated onto the film. A test method was developed to provide a continuous, uniform coverage of a known amount of the inoculum on the test films.
A 1 inch by 3 inch “tape well” is created on the antimicrobial test film. The “tape well” is crafted by cutting a 1 inch by 3 inch section from a strip of 3 inch wide vinyl tape and applying the tape to the antimicrobial film surface. The test film is secured to a Lexan sheet for stability and handling.
To the well, 0.2 ml of an inoculum is added. The inoculums are either the meat purge or cultures of nutrient broth with E. coli (ATTC #4157 or ATTC #33876) added to the broth. The Escherichia coli is a gram-negative, facultative, anaerobic, rod-shaped, coliform bacterium.
A 1 inch by 3 inch strip of Cryovac brand D-955, a non-barrier film, is placed over the inoculum to provide complete wetting of the test film with the inoculum and to prevent desiccation of the inoculum. The high OTR properties of the D-955 allow growth of the inoculum trapped between the antimicrobial test film and the D-955 film.
Inoculated films are incubated at refrigerated conditions of 40° F. for both 1 and 5 days in a high humidity sealed pouch.
The inoculum is recovered from the well by both adding the inoculum wetted D-955 film over-layment to a distilled water test tube and by swabbing the test film surface twice and placing the swab in the same test tube.
The total aerobic plate count is enumerated using Aerobic Plate Count 3M Petri Film.
Results are reported as log10 CFU/g. The difference in counts between the sample and control is the “delta log CFU/g”. This is mathematically converted to a percent reduction=(1−10^(−delta log CFU/g))*100

[1] = 5 day test, beef purge inoculum, 40° F.

SMILES | Antimicrobial Performance vs. VLDPE Control (percent reduction in microbes), Amide wax alone Erucamide, Test 2 [1] [%] | Antimicrobial Performance vs. VLDPE Control (percent reduction in microbes), None Control, Test 1 (primary additive 10 wt % in Affinity PL 1280G C8-VLDPE sealant film, no secondary additive, 5 day test, beef purge inoculum, 40° F.) [%] | Antimicrobial Performance vs. VLDPE Control (percent reduction in microbes), Cleanatis M1 @ 2%, Test 4 (primary additive 10 wt % in VLDPE film plus 2 wt % Cleanatis M1 (With Amide wax), 5 day test, beef purge inoculum, 40° F.) [%] | Antimicrobial Performance vs. VLDPE Control (percent reduction in microbes), Cleanatis M2 @2%, Test 5 (primary additive 10 wt % in VLDPE film plus 2 wt % Cleanatis M2 (With Amide wax), 5 day test, beef purge inoculum, 40° F.) [%] | Antimicrobial Performance vs. VLDPE Control (percent reduction in microbes), KANCOR CLS @ 2%, Test 3 (primary additive 10 wt % in VLDPE film plus 2 wt % Kancor OxiKan CLS (With Amide wax), 5 day test, beef purge inoculum, 40° F.) [%] | Percent Reduction in Microbes of Test Samples at Day 5 versus the "Additive Controls", None Control, Test 1 (primary additive 10 wt % in VLDPE film, control = VLDPE film, Day 5) [%] | Percent Reduction in Microbes of Test Samples at Day 5 versus the "Additive Controls", Amide wax Erucamide, Test 2 (primary additive 10 wt % in VLDPE with Erucamide, control = VLDPE + Erucamide film, Day 5) [%] | Percent Reduction in Microbes of Test Samples at Day 5 versus the "Additive Controls", Cleanatis M1 @ 2%, Test 4 (primary additive 10 wt % plus Cleanatis M1 2%, control = VLDPE + Cleanatis M1 film, Day 5) | Percent Reduction in Microbes of Test Samples at Day 5 versus the "Additive Controls", Cleanatis M2 @2%, Test 5 (primary additive 10 wt % plus Cleanatis M2 2%, control = VLDPE + Cleanatis M2 film, Day 5) | Percent Reduction in Microbes of Test Samples at Day 5 versus the "Additive Controls", KANCOR CLS @ 2%, Test 3 (primary additive 10 wt % plus KANCOR CLS 2%, control = VLDPE + KANCOR CLS film, Day 5) [%]
CCCCCCCC/C=C\CCCCCCCCCCCC(N)=O [Erucamide, Cis-13-docosenamide] | 0 | – | – | – | – | – | – | – | – | –
C[C@H](O)C(=O)[O-].[Na+] [Purasal S98, Sodium L-lactate] | 0 | 0 | 8.8 | 64.5187 | 92.0567 | 0 | 0 | Growth | Growth | 22.3735
